According to paper PMC8617627, “Novel DYRK1A Inhibitor Rescues Learning and Memory Deficits in a Mouse Model of Down Syndrome” (Pharmaceuticals, 2021):
“And” between values parts separate entries of the source, which are not always exact repeats. Identical values can stand only once.

How the values were obtained:
Rat IV pharmacokinetics [1] = type: in vivo; details: plasma
Procedure: For determining plasma pharmacokinetics blood samples (via cardiac puncture into heparinized tubes and centrifuged for plasma at 4 °C) were serially sampled via jugular vein at […], 0.5, 5, 15, and 30 min, 1, 2, 4, 8, and 24 h timepoints post dosing. Three animals per timepoint were sampled. All samples were stored at −20 °C pending analysis. Bioanalysis was carried out by UHPLC-TOF mass spectrometry using electrospray ionization against matrix matched calibration lines. The pharmacokinetic parameters were subsequently calculated by noncompartmental methods. Samples are prepared by protein precipitation and/or dilution: tissues are homogenized first. Analysis is carried out using a generic internal standard, with matrix-matched calibration standards bracketing the study samples. Samples were analyzed by high resolution accurate mass UHPLC-TOF MS. […] The mass spectrometer was operated in full scan mode, with positive ion electrospray data acquired over the m/z mass range 100–1000.

[2] = Mouse IV pharmacokinetics (plasma and brain); type: in vivo; details: for half-life: read-out: t½ (converted)
Procedure: In the mouse model, the PK-parameters were also determined in the brain samples. […] Samples are prepared by protein precipitation and/or dilution: tissues are homogenized first. Analysis is carried out using a generic internal standard, with matrix-matched calibration standards bracketing the study samples.
(§1) Samples were analyzed by high resolution accurate mass UHPLC-TOF MS. […] The mass spectrometer was operated in full scan mode, with positive ion electrospray data acquired over the m/z mass range 100–1000.

[3] = Mouse PO pharmacokinetics (plasma and brain); type: in vivo; details: for Tmax: po
Procedure: For determining plasma and brain pharmacokinetics blood samples (via cardiac puncture into heparinized tubes and centrifuged for plasma at 4 °C) and brains were terminally sampled at 0.25, 0.5, 1, 2, 3, 4, 6, and 8 h timepoints post dosing. Three animals per timepoint were sampled. The three animals designated for the 8 h timepoint were housed in a metabolism cage post-dosing for collection of urine. All samples were stored at −20 °C pending analysis. Bioanalysis was carried out by UHPLC-TOF mass spectrometry using electrospray ionization against matrix matched calibration lines.
The pharmacokinetic parameters were subsequently calculated by noncompartmental methods.
Samples are prepared by protein precipitation and/or dilution: tissues are homogenized first. Analysis is carried out using a generic internal standard, with matrix-matched calibration standards bracketing the study samples.
as §1

[4] = Mouse microsome stability assay; type: in vitro ADME; details: microsomes
[5] = Steady state tissue levels after administration in animal food; type: in vivo, mouse
Text: The highest dose provided a continuous concentration of 1.25 μmol/g both in the liver and in the brain and was used in fear conditioning experiments.
Six control euploid mice of the same genetic background as the Ts65Dn mice were used to perform this analysis; two mice per dose and three doses tested.
Prior to contextual fear conditioning experiments, all mice were exposed for three-days to either food mixture alone or food mixture with added PST-001. In addition, the mice continued to consume these same food preparations during the two days necessary to perform the behavioral testing. […] Comparisons between group means were done with Two-way factorial ANOVA, and Fisher protected least significant difference (PLSD) post hoc test was performed for all significant ANOVA (using Statistica version 13, Tibco Software, Palo Alto, CA, USA).

Ts65Dn mice = assay: Contextual fear conditioning; type: in vivo
Procedure: The capacity for contextual memory of 10- to 16-week old Ts65Dn mice was compared with age-matched euploid control mice using a fear conditioning protocol. Briefly, the mice were exposed for 3 min to the context test chamber serving as a conditioning stimulus, followed by an electric shock for 2 s representing the unconditioned stimulus. […] Freezing, defined as a species-specific defensive reaction characterized by lack of movement besides respiration and heartbeat, associated with crouching posture, was used as a measure of learning, and assessed for 180 s, every 9 s by two trained observers […] of the mouse genotypes and the pharmacological agent being used.
The capacity for contextual memory of 10- to 16-week-old Ts65Dn mice was compared with age-matched euploid control mice using the same fear conditioning protocol used in a previous work with the drug memantine. Briefly, the mice were exposed for 3 min to the context (Med Associates, St. Albans, VT, Modular Mouse Test Chamber) serving as a conditioning stimulus, followed by an electric shock (2 s, 0.7 mA, constant electric current) representing the unconditioned stimulus. […] Freezing, defined as a species-specific defensive reaction characterized by lack of movement besides respiration and heartbeat, associated with crouching posture, was used as a measure of learning, and assessed for 180 s, every 9 s by two trained observers […] of the mouse genotypes and the pharmacological agent being used. The mean number of observations indicating freezing behavior was expressed as percentage of freezing in relation to the total number of observations. All experiments were video-recorded, for automated video-analysis, confirmation of the trained-observer scores, and archival purposes.
In addition, the mice continued to consume these same food preparations during the two days necessary to perform the behavioral testing.

Rat IV pharmacokinetics [6] = type: in vivo; details: after IV bolus 1 mg/kg
139-protein kinase panel = assay: Selectivity on protein kinase panel (GINI-index); details: in words
Procedure: The determination of protein kinase inhibition was performed at the International Centre for Kinase Profiling at the University of Dundee, UK. The method used is a radioactive filter binding assay using ^33P ATP as described in the literature [79]. The ATP concentrations were at or below the calculated Km for ATP for each particular kinase.

[7] = male, Sprague-Dawley, IV 1 mg/kg

## COc1ccc2sc(-c3cncc(NC(C)=O)c3)nc2c1 [PST-001, N-(5-(5-Methoxybenzo[d]thiazol-2-yl)pyridin-3-yl)acetamide]
Rat IV pharmacokinetics [1]; IV 1 mg/kg
  AUCall: 158 h ∗ ng/mL
Rat IV pharmacokinetics [1]; Sprague-Dawley (rat), C57BL/6 (mouse), intravenous, oral, mouse or rat, IV or PO, read-out: t1/2 in plasma
  half-life: < 60 min
Rat IV pharmacokinetics [1]; [7]
  Cmax: 647 ng/mL
  Vd: 2.39 L/kg
  clearance: 105 mL/min/kg
Rat IV pharmacokinetics [1]; male, Sprague-Dawley, iv, 1 mg/kg, IV 1 mg/kg, read-out: Tmax
  Tmax: 1.8 min
Rat IV pharmacokinetics [1]; male, Sprague-Dawley, iv, 1 mg/kg, IV 1 mg/kg, read-out: t½ (converted)
  half-life: 43.2 min
Rat IV pharmacokinetics [1]; male, Sprague-Dawley, iv, 1 mg/kg, IV bolus 1 mg/kg, circulation, read-out: t½ (converted)
  half-life: 43 min
Rat IV pharmacokinetics [1]; male, Sprague-Dawley, iv, 1 mg/kg, IV bolus 1 mg/kg, read-out: Time of maximum venous concentration (Tmax) (converted)
  Tmax: 2 min
[2]; C57Bl, IV 1 mg/kg, brain
  Cmax: 867 ng/mL
  Tmax: 4.8 min
  half-life: 9 min
[2]; C57Bl, IV 1 mg/kg, plasma
  Cmax: 362 ng/mL
  Tmax: 4.8 min
  Vd: 1.39 L/kg
  clearance: 198 mL/min/kg
  half-life: 9 min
[2]; IV 1 mg/kg, brain
  AUCall: 200 h ∗ ng/mL
[2]; IV 1 mg/kg, plasma
  AUCall: 84 h ∗ ng/mL
[2]; IV bolus, plasma
  Time of Cmax: 5 min
[3]; male, C57BL/6, mouse, brain, 5 mg/kg, at Tmax after PO administration, read-out: brain level as share of the plasma level
  Kp: 0.5
[3]; male, C57BL/6, mouse, brain, 5 mg/kg, mouse, PO 5 mg/kg
  Tmax: 15 min
[3]; male, C57BL/6, mouse, plasma, 5 mg/kg, PO administration
  Tmax: 15 min
[3]; male, C57BL/6, mouse, plasma, 5 mg/kg, mouse, PO 5 mg/kg
  Tmax: 60 min
[3]; male, C57BL/6, mouse, PO 5 mg/kg, brain
  Cmax: 153 ng/mL
[3]; male, C57BL/6, mouse, PO 5 mg/kg, brain, read-out: t½ (converted)
  half-life: 16.2 min
[3]; male, C57BL/6, mouse, PO 5 mg/kg, plasma
  Cmax: 76 ng/mL
[3]; mouse, PO 5 mg/kg, brain
  AUCall: 189 h ∗ ng/mL
[3]; mouse, PO 5 mg/kg, plasma
  AUCall: 89 h ∗ ng/mL
[4]; read-out: half-life (t½)
  half-life: 25 min
[4]; read-out: intrinsic clearance, Cint
  microsomal CLint: 55 µL/min/mg
[5]; 100 mg PST-001/kg powdered food
  continuous (steady state) concentration in the brain: 1.25 µmol/g
[5]; twice-a-day administration in the animal food of 10 mg/kg
  steady state brain concentration: 150 ng/mL
[5]; twice-a-day administration in the animal food of 10 mg/kg, 10 mg/kg
  steady state plasma level: 76 ng/mL and 0.25 μM
Ts65Dn mice; Ts65Dn mice, PST-001 in the food
  Learning and memory deficits (freezing in context test): completely eliminated the learning and memory deficits
Ts65Dn mice; Ts65Dn mice, chronic oral administration
  Tolerability: well tolerated
Ts65Dn mice; control euploid mice, PST-001 in the food
  Percentage of freezing behavior: no detectable effects
Rat IV pharmacokinetics [6]
  PST-001 in the urine: No PST-001 could be found

## COc1ccc2sc(-c3cncc(N)c3)nc2c1 [compound 1, 5-(5-Methoxybenzo[d]thiazol-2-yl)pyridin-3-amine]
139-protein kinase panel
  Selectivity in the protein kinase panel: high selectivity towards DYRK1A
